According to patent US5952307A, “Basic α-aminoalkylphosphonate derivatives” (priority 1997, dated 1999):
Like-named read-outs stand apart in the source and are kept apart here.

Legend:
Type in all cases: biochemical
mast cell tryptase = mast cell tryptase (Homo sapiens, UniProt Q15661); test: Inactivation rate of mast cell tryptase, incubation method; conditions: for kobsd /[I] mast cell tryptase: 0.1M Hepes, 10% glycerol, 10 mM heparin, pH 7.5, 25° C., 7.1% DMSO, NI = no inhibition after 25 min of incubation; for kobs /[I] mast cell tryptase: 25° C., NI = no inhibition
Sequence of mast cell tryptase (Q15661 31-275): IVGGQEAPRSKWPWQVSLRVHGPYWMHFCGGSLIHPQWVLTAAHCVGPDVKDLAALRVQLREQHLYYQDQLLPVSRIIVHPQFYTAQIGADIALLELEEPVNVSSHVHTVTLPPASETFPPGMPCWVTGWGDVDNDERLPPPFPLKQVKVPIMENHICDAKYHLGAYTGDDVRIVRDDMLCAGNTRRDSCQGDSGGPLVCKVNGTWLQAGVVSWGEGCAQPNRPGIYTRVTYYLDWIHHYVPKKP
Outline: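 Incubation method at 25 °C: 0.07 μM tryptase with 20–66 μM inhibitor in Hepes pH 7.5 containing heparin, glycerol and DMSO. Aliquots were withdrawn at intervals for residual activity on Z-Arg-SBzl or Z-Lys-SBzl with DTNB. Pseudo-first-order kobs came from ln(vt/v0) versus time.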

human thrombin = biological target: T1, human thrombin (Homo sapiens, UniProt P00734); conditions: 25° C., NI = no inhibition
T1 construct: bovine trypsin, human thrombin
Outline: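 Irreversible inactivation followed by incubation method at 25 °C: 0.07 μM thrombin with 0.25–42 μM inhibitor in 80 mM Hepes pH 7.5, 428 mM NaCl, 8% DMSO. Residual activity of withdrawn aliquots measured with thioester or 4-nitroanilide substrates; kobs from pseudo-first-order fits.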

human granzyme A = biological target: T2, human granzyme A (Homo sapiens, UniProt P12544); test: Inactivation rate of human granzyme A, incubation method; conditions: Table I; 0.1M Hepes, 0.01M CaCl2 pH 7.5, 25° C., 7.6% DMSO, substrate Z--Arg--SBzl
T2 sequence (P12544 29-262): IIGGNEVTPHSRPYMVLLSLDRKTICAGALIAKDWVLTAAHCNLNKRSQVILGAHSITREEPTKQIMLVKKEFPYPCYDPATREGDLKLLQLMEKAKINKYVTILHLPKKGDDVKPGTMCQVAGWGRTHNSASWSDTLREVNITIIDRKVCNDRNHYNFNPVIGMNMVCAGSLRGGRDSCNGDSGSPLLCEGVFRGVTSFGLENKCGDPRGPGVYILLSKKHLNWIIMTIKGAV
Outline: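 Inhibitor in DMSO added to enzyme (0.01-2.3 μM) in 0.1 M HEPES, 0.01 M CaCl2, pH 7.5, 25° C (DMSO 7.6% for granzyme A, 7.1% for granzyme K); residual activity on Z-Arg-SBzl with DTNB read at intervals. Kobs from ln vt/vo vs time plots.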

rat granzyme A = test: Inactivation rate of rat granzyme A, incubation method; conditions: Table I; 0.1M Hepes, 0.01M CaCl2 pH 7.5, 25° C., 7.6% DMSO, substrate Z--Arg--SBzl
Experimental: (§1) Inactivation rates of serine proteases by aryl diesters of peptidyl derivatives of α-aminoalkylphosphonates were measured by the incubation method. An aliquot of inhibitor (25 or 50 μl) in Me2 SO was added to a buffered enzyme solution (0.01-2.3 μM) to initiate the inactivation. Aliquots (50 μl) were withdrawn at various intervals and the residual enzymatic activity was measured. Me2 SO concentration in the reaction mixture was 8-12% (v/v). A 0.1 M HEPES, 0.01 M CaCl2, pH 7.5 buffer was utilized for trypsin and trypsin-like enzymes. A 0.1 M HEPES, 0.5 M NaCl, pH 7.5, was utilized for the other serine proteases. Peptide thioesters or peptide nitroanilides with the appropriate sequences were used as substrates for various serine proteases. All peptide thioesters hydrolysis rates were measured with the assay mixture containing 4,4'-dithiodipyridine {ε324 =19800 M^-1 cm^-1; Grasetti & Murray, Arch. Biochem. Biophys. 1967, 119, 41-48}. Peptide 4-nitroanilide hydrolysis was measured at 410 nm {ε410 =8800 M^-1 cm^-1; Erlanger et al., Arch. Biochem. Biophys. 1961, 95, 271-278}. First order inactivation rate constants (Kobs) were obtained from plots of In vt /vo vs time, and the correlation coefficients were greater then 0.98.
(§2) ^a Inhibition constants were measured in 0.1M Hepes, 0.01M CaCl2
(§3) pH 7.5 for trypsin, granzymes A, and K, and in 0.1M Hepes, 10% glycerol,
(§4) 10 mM heparin, pH 7.5 for mast cell tryptase, and at 25° C. The
(§5) reaction mixtures contained 2% DMSO for trypsin, 7.6% for granzyme A, and
(§6) 7.1% for granzyme K and tryptase. The substrate was Z--Arg--SBzl for
(§7) granzymes and trypsin, and Z--Arg--SBzl or Z--Lys--SBzl for tryptase in
(§8) the presence of DTNB. The inhibitor # concentration ranged from 0.001 to
(§9) ^b NI, no inhibition after 25 min of incubation with enzyme.

bovine trypsin [1] = biological target: T3, bovine trypsin (Bos taurus, UniProt P00760); test: Inactivation rate of bovine trypsin, incubation method; conditions: for kobsd /[I] bovine trypsin: Table I, 0.1M Hepes, 0.01M CaCl2 pH 7.5, 25° C., 2% DMSO, substrate Z--Arg--SBzl, NI = no inhibition after 25 min; for kobs /[I] bovine trypsin: Table II, 0.13 μM trypsin, 0.25-42 μM inhibitor, 80 mM Hepes pH 7.5, 1 mM CaCl2, 8% DMSO, 25° C., NI = no inhibition
T3 sequence (P00760 24-246): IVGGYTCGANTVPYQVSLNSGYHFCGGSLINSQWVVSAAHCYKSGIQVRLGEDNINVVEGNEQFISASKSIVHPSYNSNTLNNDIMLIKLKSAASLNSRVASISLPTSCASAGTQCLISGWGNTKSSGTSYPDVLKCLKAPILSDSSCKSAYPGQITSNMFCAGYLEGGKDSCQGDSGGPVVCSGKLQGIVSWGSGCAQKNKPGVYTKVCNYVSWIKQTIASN
Outline: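 Incubation method: trypsin pre-incubated with inhibitor (0.25-42 μM) at 25° C in 80 mM Hepes, 1 mM CaCl2, pH 7.5, 8% DMSO; aliquots withdrawn over time for residual activity on Z-Arg-SBzl thioester with DTNB or 4,4'-dithiodipyridine. Pseudo-first-order kobs from ln vt/vo versus time.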

rat granzyme K = biological target: T4, rat granzyme K (Rattus norvegicus, UniProt P49864); test: Inactivation rate of rat granzyme K, incubation method; conditions: Table I; 0.1M Hepes, 0.01M CaCl2 pH 7.5, 25° C., 7.1% DMSO, substrate Z--Arg--SBzl; NI = no inhibition after 25 min of incubation
T4 sequence (P49864 26-258): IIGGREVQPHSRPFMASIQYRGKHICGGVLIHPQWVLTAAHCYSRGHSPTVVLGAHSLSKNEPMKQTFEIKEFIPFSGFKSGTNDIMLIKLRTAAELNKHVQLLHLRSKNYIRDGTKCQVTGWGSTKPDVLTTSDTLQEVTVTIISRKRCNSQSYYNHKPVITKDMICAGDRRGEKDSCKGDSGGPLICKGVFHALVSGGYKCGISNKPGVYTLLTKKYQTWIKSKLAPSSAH
Experimental: as §1, §2, §3, §4, §5, §6, §7, §8, §9

bovine trypsin [2] = biological target: T3, bovine trypsin; test: Inactivation rate of bovine trypsin, incubation method; conditions: Table III; enzyme 0.06-0.5 μM, inhibitor 0.25-42 μM, 9% DMSO, 25° C.; NI = no inhibition
[3] = Table II, 0.07 μM tryptase, 20-66 μM inhibitor, Hepes pH 7.5, heparin, 9% glycerol, 8% DMSO
[4] = Table II, 0.07 μM thrombin, 0.25-42 μM inhibitor, 80 mM Hepes pH 7.5, 428 mM NaCl, 8% DMSO
[5] = Table III, enzyme 0.06-0.5 μM, inhibitor 0.25-42 μM, 9% DMSO

SMILES: CC(NC(=O)OCc1ccccc1)C(=O)NC(c1ccc(C(=N)N)cc1)P(=O)(Oc1ccccc1)Oc1ccccc1 (mixture of isomers) [Cbz--Ala-(4-AmPhGly)^P (OPh)2]
- kobsd /[I] mast cell tryptase (mast cell tryptase; Table I): 0.8 M⁻¹ s⁻¹
- kobs /[I] mast cell tryptase (mast cell tryptase; [3]): 0.8 M⁻¹ s⁻¹
- kobs /[I] human thrombin (human thrombin; [4]): 750 ± 18 M⁻¹ s⁻¹
- kobsd /[I] human granzyme A (human granzyme A): 1670 ± 11 M⁻¹ s⁻¹
- kobsd /[I] rat granzyme A (rat granzyme A): 1270 ± 85 M⁻¹ s⁻¹
- kobsd /[I] bovine trypsin (bovine trypsin [1]): 1850 ± 85 M⁻¹ s⁻¹
- kobs /[I] bovine trypsin (bovine trypsin [1]): 1,850 ± 85 M^-1 s^-1

SMILES: CC(NC(=O)OCc1ccccc1)C(=O)NC(C)C(=O)NC(C)C(=O)NC(c1ccc(C(=N)N)cc1)P(=O)(Oc1ccccc1)Oc1ccccc1 (mixture of isomers) [Cbz--Ala--Ala--Ala-(4-AmPhGly)^P (OPh)2]
- kobsd /[I] mast cell tryptase (mast cell tryptase; Table I): 2 M⁻¹ s⁻¹
- kobs /[I] mast cell tryptase (mast cell tryptase; [3]): 2.0 ± 0.2 M⁻¹ s⁻¹
- kobsd /[I] rat granzyme K (rat granzyme K): 7 M⁻¹ s⁻¹
- kobs /[I] human thrombin (human thrombin; [4]): 1,290 ± 26 M^-1 s^-1
- kobsd /[I] human granzyme A (human granzyme A): 730 ± 15 M⁻¹ s⁻¹
- kobsd /[I] rat granzyme A (rat granzyme A): 590 ± 17 M⁻¹ s⁻¹
- kobsd /[I] bovine trypsin (bovine trypsin [1]): 1780 ± 33 M⁻¹ s⁻¹
- kobs /[I] bovine trypsin (bovine trypsin [1]): 1,780 ± 33 M^-1 s^-1

SMILES: N=C(N)c1ccc(C(NC(=O)C(CCCCN)NC(=O)OCc2ccccc2)P(=O)(Oc2ccccc2)Oc2ccccc2)cc1 (mixture of isomers) [Cbz--Lys-(4-AmPhGly)^P (OPh)2]
- kobsd /[I] rat granzyme K (rat granzyme K): 1 M⁻¹ s⁻¹
- kobs /[I] human thrombin (human thrombin; [4]): 88 ± 2 M⁻¹ s⁻¹
- kobsd /[I] human granzyme A (human granzyme A): 30 ± 1 M⁻¹ s⁻¹
- kobsd /[I] rat granzyme A (rat granzyme A): 15 ± 1 M⁻¹ s⁻¹
- kobsd /[I] bovine trypsin (bovine trypsin [1]): 30 ± 1 M⁻¹ s⁻¹
- kobs /[I] bovine trypsin (bovine trypsin [1]): 30 ± 1 M⁻¹ s⁻¹

SMILES: N=C(N)c1ccc(C(NC(=O)C(Cc2ccccc2)NC(=O)OCc2ccccc2)P(=O)(Oc2ccccc2)Oc2ccccc2)cc1 (mixture of isomers) [Cbz--Phe-(4-AmPhGly)^P (OPh)2]
- % Inh mast cell tryptase (mast cell tryptase; Table I, printed in the kobsd/[I] column): 5%
- % Inh mast cell tryptase (mast cell tryptase; Table II, printed in the kobs/[I] column): 5%
- kobsd /[I] rat granzyme K (rat granzyme K): 13 M⁻¹ s⁻¹
- kobs /[I] human thrombin (human thrombin; [4]): 20 ± 1 M⁻¹ s⁻¹
- kobsd /[I] human granzyme A (human granzyme A): 14 ± 1 M⁻¹ s⁻¹
- kobsd /[I] rat granzyme A (rat granzyme A): 8 M⁻¹ s⁻¹
- kobsd /[I] bovine trypsin (bovine trypsin [1]): 17 ± 1 M⁻¹ s⁻¹
- kobs /[I] bovine trypsin (bovine trypsin [1]): 17 ± 1 M⁻¹ s⁻¹

SMILES: CC(C)C(NC(=O)CCC(=O)O)C(=O)N1CCCC1C(=O)NC(CCCCCN)P(=O)(Oc1ccccc1)Oc1ccccc1 (mixture of isomers) [Suc--Val--Pro-HomoLys^P (OPh)2]
- kobs /[I] mast cell tryptase (mast cell tryptase; [5]): 4.1 ± 0.4 M⁻¹ s⁻¹
- kobs /[I] human thrombin (human thrombin; [5]): 1.6 ± 0.3 M⁻¹ s⁻¹
- kobs /[I] bovine trypsin (bovine trypsin [2]): 51 ± 10 M⁻¹ s⁻¹

SMILES: N=C(N)c1ccc(C(NS(=O)(=O)c2cccc3ccccc23)P(=O)(Oc2ccccc2)Oc2ccccc2)cc1 (racemic) [1-NpSO2-(4-AmPhGly)^P (OPh)2]
- kobsd /[I] mast cell tryptase (mast cell tryptase; Table I): 10 M⁻¹ s⁻¹
- kobs /[I] mast cell tryptase (mast cell tryptase; [3]): 10 ± 1 M⁻¹ s⁻¹
- kobs /[I] human thrombin (human thrombin; [4]): 24 ± 3 M⁻¹ s⁻¹
- kobsd /[I] human granzyme A (human granzyme A): 330 ± 26 M⁻¹ s⁻¹
- kobsd /[I] rat granzyme A (rat granzyme A): 30 ± 1 M⁻¹ s⁻¹
- kobsd /[I] bovine trypsin (bovine trypsin [1]): 170 ± 34 M⁻¹ s⁻¹
- kobs /[I] bovine trypsin (bovine trypsin [1]): 170 ± 34 M⁻¹ s⁻¹

SMILES: N=C(N)c1ccc(C(NC(=O)Oc2cccc3ccccc23)P(=O)(Oc2ccccc2)Oc2ccccc2)cc1 (stereo not shown) [1-Naphthyloxycarbonyl-(4-AmPhGly)^P (OPh)2]
- kobsd /[I] rat granzyme K (rat granzyme K): 12 M⁻¹ s⁻¹
- kobs /[I] human thrombin (human thrombin; [4]): 30 ± 2 M⁻¹ s⁻¹
- kobsd /[I] human granzyme A (human granzyme A): 160 ± 2 M⁻¹ s⁻¹
- kobsd /[I] rat granzyme A (rat granzyme A): 90 ± 9 M⁻¹ s⁻¹
- kobsd /[I] bovine trypsin (bovine trypsin [1]): 30 ± 1 M⁻¹ s⁻¹
- kobs /[I] bovine trypsin (bovine trypsin [1]): 30 ± 1 M⁻¹ s⁻¹

SMILES: Cl.N=C(N)c1ccc(C(NC(=O)c2cccc(Oc3ccccc3)c2)P(=O)(Oc2ccccc2)Oc2ccccc2)cc1 (stereo not shown) [3-Phenoxybenzoyl-(4-AmPhGly)^P (OPh)2, Diphenyl N-(3-Phenoxybenzoyl)amino(4-amidinophenyl)methanephosphonate Hydrochloride]
- kobsd /[I] rat granzyme K (rat granzyme K): 1 M⁻¹ s⁻¹
- kobs /[I] human thrombin (human thrombin; [4]): 200 ± 8 M⁻¹ s⁻¹
- kobsd /[I] human granzyme A (human granzyme A): 340 ± 53 M⁻¹ s⁻¹
- kobsd /[I] rat granzyme A (rat granzyme A): 470 ± 14 M⁻¹ s⁻¹
- kobsd /[I] bovine trypsin (bovine trypsin [1]): 50 ± 2 M⁻¹ s⁻¹
- kobs /[I] bovine trypsin (bovine trypsin [1]): 50 ± 2 M⁻¹ s⁻¹

SMILES: Cl.N=C(N)c1ccc(C(NC(=O)C=Cc2ccco2)P(=O)(Oc2ccccc2)Oc2ccccc2)cc1 (stereo not shown) [(2-Furyl)acryloyl-(4-AmPhGly)^P (OPh)2, Diphenyl N-(3-(2-Furyl)acryloyl)amino(4-amidinophenyl)methanephosphonate Hydrochloride]
- kobsd /[I] rat granzyme K (rat granzyme K): 32 M⁻¹ s⁻¹
- kobs /[I] human thrombin (human thrombin; [4]): 15 ± 1 M⁻¹ s⁻¹
- kobsd /[I] human granzyme A (human granzyme A): 1740 ± 41 M⁻¹ s⁻¹
- kobsd /[I] rat granzyme A (rat granzyme A): 1740 ± 237 M⁻¹ s⁻¹
- kobsd /[I] bovine trypsin (bovine trypsin [1]): 360 ± 28 M⁻¹ s⁻¹
- kobs /[I] bovine trypsin (bovine trypsin [1]): 360 ± 28 M⁻¹ s⁻¹

SMILES: Cl.N=C(N)c1ccc(C(NC(=O)/C=C/c2cccnc2)P(=O)(Oc2ccccc2)Oc2ccccc2)cc1 (stereo not drawn) [Diphenyl N-(trans-3-(3-Pyridyl)acryloyl)amino(4-amidinophenyl)methanephosphonate Hydrochloride]
- kobsd /[I] rat granzyme K (rat granzyme K): 3 M⁻¹ s⁻¹
- kobs /[I] human thrombin (human thrombin; [4]): 2 M⁻¹ s⁻¹
- kobsd /[I] human granzyme A (human granzyme A): 5 M⁻¹ s⁻¹
- kobsd /[I] rat granzyme A (rat granzyme A): 1 M⁻¹ s⁻¹
